Where a name gives a salt, the structure may show the parent alone.

The conditions of data set [1]: cited from earlier work.
Data set [2] concerns control normal lymphocytes (PBL). Briefly: Viability/apoptosis of control normal lymphocytes by dye exclusion and flow cytometric analysis. The format is cell-based, human. To be noted: 10 μM, 48 hours exposure, PBL of a healthy volunteer. The procedure:
(§1) After 48 hours exposure, the number of viable cells was determined by dye exclusion and flow cytometric analysis.
(In general: Flow cytometry measures light scatter and fluorescence of single cells or particles in a stream.)

The test system of data set [3] is Chronic lymphocytic leukemia cells (CLL). Kind of data set: Viability/apoptosis of CLL cells by dye exclusion and flow cytometric analysis. The format is cell-based, human. Conditions: 10 μM, 48 hours exposure, CLL cells of two patients. The procedure: as §1
For data set [4] the following is noted: in vivo; cited from earlier work.
The conditions of data set [5]: cited from earlier work. This is another data set of the same source.
The test system of a further data set is CLL cells. Conditions: not feasible in vivo due to toxicity; cited from earlier work.
For data set [6], the system named is peripheral blood T lymphocytes. To be noted: cited from earlier work.
In another data set the test system is U266. Kind of data set: MTT cell viability assay, U266. The format is cell-based. To be noted: Homo sapiens, U-266, Myeloma, 72 hours exposure. The procedure: (§2) After 72 hours exposure, the viability of the cells was determined by the rate of conversion of the formazan salt measuring the optical density (OD) at 570 nm (MTT assay).
For orientation: Tetrazolium dyes change colour on reduction, which living cells bring about.

For another data set, the system named is HCT-116. Kind of data set: MTT cell viability assay, HCT-116. The format is cell-based. To be noted: Homo sapiens, Colon, 72 hours exposure. The procedure: as §2
A further data set relates to SU-DHL9. Kind of data set: MTT cell viability assay, SU-DHL9. The format is cell-based. Conditions: Lymphoma, 72 hours exposure. How it is done:
as §2

Another data set has as its system RPMI8226. Kind of data set: MTT cell viability assay, RPMI8226. Conditions: Homo sapiens, RPMI-8226, Myeloma, 72 hours exposure. The format is cell-based. The procedure:
as §2

Data set [7] deals with myeloma cell lines RPM18226. Kind of data set: Apoptosis induction in myeloma cell line. The format is cell-based. To be noted: RPM18226 myeloma cells.
In another data set the test system is MCF7. Kind of data set: MTT cell viability assay, MCF7. The format is cell-based. Conditions: Homo sapiens, Breast, 72 hours exposure. How it is done: as §2
The next data set deals with 10C9. Kind of data set: MTT cell viability assay, 10C9. The format is cell-based. To be noted: Lymphoma, 72 hours exposure. How it is done: as §2
In a further data set the test system is SU-DHL1. Briefly: MTT cell viability assay, SU-DHL1. Conditions: Homo sapiens, SU-DHL-1, Lymphoma, 72 hours exposure. The format is cell-based. How it is done: as §2
The subject of another data set is LNCap. Kind of data set: MTT cell viability assay, LNCap. The format is cell-based. Conditions: Homo sapiens, Prostate, 72 hours exposure. The procedure:
as §2

The test system of the next data set is RAJI. Briefly: MTT cell viability assay, RAJI. The format is cell-based. Conditions: Homo sapiens, Lymphoma, 72 hours exposure. How it is done:
as §2

A further data set has as its system MDA-231. Briefly: MTT cell viability assay, MDA-231. The format is cell-based. To be noted: Homo sapiens, MDA-MB-231, Breast, 72 hours exposure. The procedure:
as §2

In the case of `OC(c1cc(C(F)(F)F)nc2c(C(F)(F)F)cccc12)C1CCCCN1` (stereo not shown) [Mefloquine hydrochloride], the solubility in ethanol result in data set [1] (ethanol) is on record as “soluble in ethanol”. The solubility in water result in data set [1] (water) is recorded as “slightly soluble in water”.
As to `O[C@H](c1cc(C(F)(F)F)nc2c(C(F)(F)F)cccc12)[C@@H]1CCCCN1` (relative stereo) [(+/−) Mefloquine, (R*, S*)-(±)-alpha-2-piperidinyl-2,8-bis (trifluoromethyl)-4-quinolinemethanol], the “induction of apoptosis in normal lymphocytes” value in data set [2] is reported as “not against normal lymphocytes”. The “induction of apoptosis in CLL cells” value in data set [3] is recorded as “potent apoptosis”.
On to `O=C(O)c1cc(C(F)(F)F)nc2c(C(F)(F)F)cccc12` [Metabolite, 2,8-bis-trifluoromethyl-4-quinoline carboxylic acid], for which the “passage of the blood brain barrier / accumulation in the brain” value in [4] was “will not penetrate the brain barrier”. In [5] (healthy volunteers, 250 mg once weekly for 16 weeks, steady state at week 16, plasma), the “Mean (SD) trough concentration, Plasma” value is given as 9.80 (5.07) μmol · 1^−1. Moreover, the “Mean (SD) trough concentration, Serum” value in data set [5] (healthy volunteers, 250 mg once weekly for 16 weeks, steady state at week 16, serum) is listed as 9.44 (5.00) μmol · 1^−1. For the same compound, the “Mean (SD) trough concentration, Whole Blood” value in data set [5] (healthy volunteers, 250 mg once weekly for 16 weeks, steady state at week 16, whole blood) is 4.89 (2.58) μmol · 1^−1. Moreover, the “accumulation in the plasma” value in data set [5] (plasma, text statement referring to Table 1) is reported as “up to 10 μM”.
Turning to `CCN(CCO)CCCC(C)Nc1ccnc2cc(Cl)ccc12` (stereo not shown) [Hydroxychloroquine, hydroxychloroquine], the “concentration active against CLL cells” value with CLL cells is ≥ 30 µg/mL. Besides, in [6], the “induction of apoptosis in peripheral blood T lymphocytes” value is “induce apoptosis”.
The term IC50 denotes the concentration that inhibits the measured activity by half. As for `O[C@H](c1cc(C(F)(F)F)nc2c(C(F)(F)F)cccc12)[C@@H]1CCCCN1` (racemic) [(+/−) Mefloquine, (R*, S*)-(±)-alpha-2-piperidinyl-2,8-bis (trifluoromethyl)-4-quinolinemethanol], the IC50 is 11 µM in the data set on U266; 6 µM in the data set on HCT-116; 7 µM in the data set with SU-DHL9; 8 µM in the data set with RPMI8226; 10 to 20 µM in data set [7]; 10 µM in the data set on MCF7. Besides, the IC50 with 10C9 was found to be 9 µM; with SU-DHL1, 8 µM; in the data set with LNCap, 12 µM; in the data set on RAJI, 12 µM; in the data set with MDA-231 it was 20 µM.
